In patent publication US20230183239A1, “ECTONUCLEOTIDE PYROPHOSPHATASE-PHOSPHODIESTERASE 1 (ENPP-1) INHIBITORS AND USES THEREOF” (AbbVie Inc., priority 2017, published 2023):

Molecular target: T1, ENPP1 (Homo sapiens, UniProt P22413)
T1 sequence (P22413 1-925): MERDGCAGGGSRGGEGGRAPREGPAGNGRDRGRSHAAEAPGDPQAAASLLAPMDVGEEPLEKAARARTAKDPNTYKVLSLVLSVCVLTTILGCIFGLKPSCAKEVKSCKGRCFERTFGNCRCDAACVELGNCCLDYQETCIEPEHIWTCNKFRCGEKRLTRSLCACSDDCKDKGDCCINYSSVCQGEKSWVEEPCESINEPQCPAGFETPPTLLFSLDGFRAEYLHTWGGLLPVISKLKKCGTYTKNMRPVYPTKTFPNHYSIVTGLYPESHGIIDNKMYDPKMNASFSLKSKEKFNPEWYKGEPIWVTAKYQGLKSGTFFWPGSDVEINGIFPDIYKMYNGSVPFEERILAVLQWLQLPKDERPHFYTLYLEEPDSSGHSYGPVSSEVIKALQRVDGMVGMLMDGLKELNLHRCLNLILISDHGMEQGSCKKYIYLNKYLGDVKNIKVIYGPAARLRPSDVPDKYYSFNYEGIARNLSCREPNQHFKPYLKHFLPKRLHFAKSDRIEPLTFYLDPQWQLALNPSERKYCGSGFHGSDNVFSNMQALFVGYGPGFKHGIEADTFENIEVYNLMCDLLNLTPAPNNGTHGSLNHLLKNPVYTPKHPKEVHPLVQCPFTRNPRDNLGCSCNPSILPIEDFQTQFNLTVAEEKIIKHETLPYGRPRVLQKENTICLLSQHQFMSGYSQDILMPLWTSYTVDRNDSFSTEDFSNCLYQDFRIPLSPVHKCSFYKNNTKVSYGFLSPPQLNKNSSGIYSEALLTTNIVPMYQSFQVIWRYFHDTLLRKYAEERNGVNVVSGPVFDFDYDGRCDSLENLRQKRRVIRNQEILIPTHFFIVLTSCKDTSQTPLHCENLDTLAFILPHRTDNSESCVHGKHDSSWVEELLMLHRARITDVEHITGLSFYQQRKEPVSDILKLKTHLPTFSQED
Assay: Indirect quantitation of 2',3'-cGAMP hydrolysis (AMP-Glo Assay kit)
Format: biochemical
Details: cGAMP substrate; Ki from IC50 by Cheng-Prusoff; read-out: ENPP1 Inhibition -cGAMP: Ki

SMILES | Ki
NS(=O)(=O)NCCC1CCN(c2ncnc3cc4c(cc23)OCO4)CC1 [Example 170, N-(2-(1-([1,3]dioxolo[4,5-g]quinazolin-8-yl)piperidin-4-yl)ethyl)sulfamide] | > 1000 nM
COc1cc2nccc(NC(C)c3ccc(NS(N)(=O)=O)cc3)c2cc1OC (stereo not shown) [Example 181, N-(4-(1-((6,7-dimethoxyquinolin-4-yl)amino)ethyl)phenyl)sulfamide] | > 1000 nM
COc1cnc(C(=O)N2CCC(CCNS(N)(=O)=O)CC2)cc1OC [Example 124, N-(2-(1-(4,5-dimethoxypicolinoyl)piperidin-4-yl)ethyl)sulfamide] | > 1000 nM
COc1ccc2c(c1)OCC(=O)N2Cc1ccc(NS(N)(=O)=O)cc1 [Example 401, N-(4-((7-methoxy-3-oxo-2,3-dihydro-4H-benzo[b][1,4]oxazin-4-yl)methyl)phenyl)sulfamide] | > 1000 nM
N#Cc1cnc2cc3c(cc2c1N1CCC(CCNS(N)(=O)=O)CC1)OCO3 [Example 221, N-(2-(1-(7-cyano-[1,3]dioxolo[4,5-g]quinolin-8-yl)piperidin-4-yl)ethyl)sulfamide] | > 1000 nM
COc1cc2ncnc(N3CCC(CCNS(=O)(=O)NC(C)C)CC3)c2cc1OC [Example 142, 2-(1-(6,7-dimethoxyquinazolin-4-yl)piperidin-4-yl)ethan-1-amino(N-prop-2-yl)sulfonamide] | > 1000 nM
COc1cc2nccc(Oc3ccc(NS(N)(=O)=O)nc3)c2cc1OC [Example 176, N-(5-((6,7-dimethoxyquinolin-4-yl)oxy)pyridin-2-yl)sulfamide] | > 1000 nM
COc1ccc2c(Oc3ccc(NS(N)(=O)=O)cc3OC)ccnc2c1 [Example 323, N-(3-methoxy-4-((7-methoxyquinolin-4-yl)oxy)phenyl)sulfamide] | > 1000 nM
COc1cc2nccc(C(=O)N3CCC(CNS(N)(=O)=O)CC3)c2cc1OC [Example 178, N-((1-(6,7-dimethoxyquinoline-4-carbonyl)piperidin-4-yl)methyl)sulfamide] | > 1000 nM
NC(=O)c1ccc2nccc(N3CCC(CCNS(N)(=O)=O)CC3)c2c1 [Example 192, 4-(4-(2-(sulfamoylamino)ethyl)piperidin-1-yl)quinoline-6-carboxamide] | > 1000 nM
COc1ccc(S(=O)(=O)N2CCN(CCNS(N)(=O)=O)CC2)cc1OC [Example 152, N-(2-(4-((3,4-dimethoxyphenyl)sulfonyl)piperazin-1-yl)ethyl)sulfamide] | > 1000 nM
COc1cc2c(-c3ccc4c(c3)CN(S(N)(=O)=O)CC4)c(C#N)cnc2cn1 [Example 257, 7-(3-cyano-6-methoxy-1,7-naphthyridin-4-yl)-3,4-dihydroisoquinoline-2(1H)-sulfonamide] | > 1000 nM
NS(=O)(=O)NCCC1CCN(c2ncnc3cc(OC(F)(F)F)ccc23)CC1 [Example 209, N-(2-(1-(7-(trifluoromethoxy)quinazolin-4-yl)piperidin-4-yl)ethyl)sulfamide] | > 1000 nM
COc1cc2ncnc(-c3ccc(S(N)(=O)=O)cc3)c2cc1OC [Example 333, 4-(6,7-dimethoxyquinazolin-4-yl)benzenesulfonamide] | > 1000 nM
COc1cc2nc(N(C)C)nc(N3CCC(CCNC=O)CC3)c2cc1OC [Example 118, N-(2-(1-(2-(dimethylamino)-6,7-dimethoxyquinazolin-4-yl)piperidin-4-yl)ethyl)formamide] | > 1000 nM
COc1cc2ncnc(NCc3ccc(N4CCNS4(=O)=O)cc3)c2cc1OC [Example 228, 2-(4-(((6,7-dimethoxyquinazolin-4-yl)amino)methyl)phenyl)-1,2,5-thiadiazolidine 1,1-dioxide] | > 1000 nM
COc1ccc(C(=O)N2CCC(CCNS(N)(=O)=O)CC2)cc1OC [Example 47, N (2-(1-(3,4-dimethoxybenzoyl)piperidin-4-yl)ethyl)sulfamide] | > 1000 nM
COc1cc2nccc(N3CCC4(CCNC4=O)CC3)c2cc1OC [Example 187, 8-(6,7-dimethoxyquinolin-4-yl)-2,8-diazaspiro[4.5]decan-1-one] | > 1000 nM
COc1cc2ncnc(N3CCN(C(=O)CN)CC3)c2cc1OC [Example 119, 2-amino-1-(4-(6,7-dimethoxyquinazolin-4-yl)piperazin-1-yl)ethan-1-one] | > 1000 nM
Cc1ncnc(N2CCC(CCNS(N)(=O)=O)CC2)c1C [Example 15, N-(2-(1-(5,6-dimethylpyrimidin-4-yl)piperidin-4-yl)ethyl)sulfamide] | > 1000 nM
CCNS(=O)(=O)NCCC1CCN(c2ncnc3cc(OC)c(OC)cc23)CC1 [Example 139, 2-(1-(6,7-dimethoxyquinazolin-4-yl)piperidin-4-yl)ethan-1-amino(N-ethyl)sulfonamide] | > 1000 nM
CNC(=O)c1cc(N2CCC(CCNS(N)(=O)=O)CC2)ncn1 [Example 130, N-methyl-6-(4-(2-(sulfamoylamino)ethyl)piperidin-1-yl)pyrimidine-4-carboxamide] | > 1000 nM

Second part, the compound after the results:

Ki | SMILES
100 to 1000 nM | Cn1cc(Br)c2ncnc(N3CCC(CCNS(N)(=O)=O)CC3)c21 [Example 138, N-(2-(1-(7-bromo-5-methyl-SH-pyrrolo[3,2-d]pyrimidin-4-yl)piperidin-4-yl)ethyl)sulfamide]
> 1000 nM | CCOc1ccc(S(=O)(=O)N2CCN(C)CC2)cc1-c1ncnc2cc(OC)c(OC)cc12 [Example 337, 4-(2-ethoxy-5-((4-methylpiperazin-1-yl)sulfonyl)phenyl)-6,7-dimethoxyquinazoline]
> 1000 nM | COc1cc2ncnc(NCc3ccc(S(=O)(=O)O)cc3)c2cc1OC [Example 161, 4-(((6,7-dimethoxyquinazolin-4-yl)amino)methyl)benzene sulfonic acid]
100 to 1000 nM | COc1cc2nccc(-c3ccc(CNS(N)(=O)=O)cc3)c2cn1 [Example 415, N-(4-(7-methoxy-1,6-naphthyridin-4-yl)benzyl)sulfamide]
100 to 1000 nM | COc1cc2ncnc(NC(=O)c3ccc(NS(N)(=O)=O)cc3)c2cc1OC [Example 188, N-(6,7-dimethoxyquinazolin-4-yl)-4-(sulfamoylamino)benzamide]
> 1000 nM | COc1cc2ncnc(NCc3ccc4c(c3)OCO4)c2cc1OC [Example 336, N-(benzo[d][1,3]dioxol-5-ylmethyl)-6,7-dimethoxyquinazolin-4-amine]
100 to 1000 nM | COc1cc2ncnc(N3CCC(CCNC(N)=O)CC3)c2cc1OC [Example 117, 1-(2-(1-(6,7-dimethoxyquinazolin-4-yl)piperidin-4-yl)ethyl)urea]
100 to 1000 nM | COc1ccc2nccc(Oc3ccc(NS(N)(=O)=O)cc3)c2n1 [Example 346, N-(4-((6-methoxy-1,5-naphthyridin-4-yl)oxy)phenyl)sulfamide]
< 100 nM | COc1cc2ncnc(N3CC=C(c4ccc5c(c4)COB5O)CC3)c2cc1OC [Example 157, 5-(1-(6,7-dimethoxyquinazolin-4-yl)-1,2,3,6-tetrahydropyridin-4-yl)benzo[c][1,2] oxaborol-1(3H)-ol]
100 to 1000 nM | COc1ccc2c(-n3cc(CNS(N)(=O)=O)cn3)ccnc2c1 [Example 414, N-((1-(7-methoxyquinolin-4-yl)-1H-pyrazol-4-yl)methyl)sulfamide]
> 1000 nM | COc1ccc(-c2cc(N3CCC(CCNS(N)(=O)=O)CC3)ncn2)cc1OC [Example 38, N-(2-(1-(6-(3,4-dimethoxyphenyl)pyrimidin-4-yl)piperidin-4-yl)ethyl)sulfamide]
< 100 nM | COc1cc2ncnc(NCc3ccc4c(c3)COB4O)c2cc1OC [Example 325, 5-(((6,7-dimethoxyquinazolin-4-yl)amino)methyl)benzo[c][1,2]oxa borol-1(3H)-ol]
100 to 1000 nM | COc1ccc2c(-c3ccc(CNS(N)(=O)=O)cc3)coc2c1 [Example 348, N-(4-(6-methoxybenzofuran-3-yl)benzyl) sulfamide]
100 to 1000 nM | COc1cc2ncnc(N3CCC(CCNS(=O)(=O)C(F)(F)F)CC3)c2cc1OC [Example 146, N-(2-(1-(6,7-dimethoxyquinazolin-4-yl)piperidin-4-yl)ethyl)-1,1,1-trifluoromethanesulfonamide]
100 to 1000 nM | COc1cc2ncnc(N3CCC(CCNS(=O)(=O)c4ccccn4)CC3)c2cc1OC [Example 155, N-(2-(1-(6,7-dimethoxyquinazolin-4-yl)piperidin-4-yl)ethyl)pyridine-2-sulfonamide]
100 to 1000 nM | COc1ccc2c(Oc3ccc(C(=O)O)c(OC)c3)ccnc2c1 [Example 347, 2-methoxy-4-((7-methoxyquinolin-4-yl)oxy)benzoic acid]
100 to 1000 nM | COc1cc2ncnc(N3CCC(CCNC(C)=O)CC3)c2cc1OC [Example 335, N-(2-(1-(6,7-dimethoxyquinazolin-4-yl)piperidin-4-yl)ethyl)acetamide]
< 100 nM | COc1ccc2c(Oc3cc(F)c(NS(N)(=O)=O)cc3F)ccnc2c1 [Example 79, N-(2,5-difluoro-4-((7-methoxyquinolin-4-yl)oxy)phenyl)sulfamide]
